Bounds are passed on as bounds.

Data on 16 molecules can be found in PMC6102691, “Identification of a novel ligand for the ATAD2 bromodomain with selectivity over BRD4 through a fragment growing approach” (Organic & Biomolecular Chemistry, 2018).

Data set [1] deals with T1, GST-ATAD2 bromodomain / biotinylated acetylated histone H4 peptide (Homo sapiens, UniProt Q6PL18).
T1 construct: 981-1108; made in house; host or cells: Escherichia coli BL21 (DE3) pLysS, plasmid pGEX-6P-1
T1 sequence (Q6PL18 981-1108): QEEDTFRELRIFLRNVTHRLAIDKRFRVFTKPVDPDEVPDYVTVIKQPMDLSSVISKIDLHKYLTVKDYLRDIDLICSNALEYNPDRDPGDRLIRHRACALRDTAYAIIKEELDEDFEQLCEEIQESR
As to the kind of experiment: ATAD2-histone displacement HTRF assay. The data set is classed as binding. To be noted: for IC50: HTRF format assay, highest concentration 1000 μM; for ATAD2 LE: Ligand efficiency (LE) = 1.4(–log IC50)/N, N = number of non-hydrogen atoms, from HTRF IC50; for ATAD2 inhibition in HTRF, in words: highest concentration assayed 1000 μM. As to the method:
(§1) Surface plasmon resonance (SPR) was used to assess the direct binding of the fragments and provide Kd values for binding to both ATAD2 and BRD4. SPR can yield artefactual data where the concentration of a small-molecular analyte exceeds ∼250 μM, and accordingly, this was the highest concentration used in the assays.
1.1 Protein Purification.
The ATAD2 bromodomain 981-1108 was expressed with an N-terminal GST fusion from the pGEX-6P-1 plasmid. The plasmids were transformed into BL21 (DE3) pLysS Escherichia coli (Novagen) and then the cells grown in luria bertani (LB) media at 37 °C until an OD600 of 0.6 was reached. The temperature was reduced to 20 °C and expression induced using 0.2 mM Isopropyl β-D-1-thiogalactopyranoside (IPTG). The cells were harvested after overnight incubation and resuspended in buffer A (20 mM HEPES pH 7.4, 100 mM NaCl, 5 mM Dithiothreitol (DTT)). The cells were lysed by sonication and the lysate cleared by centrifugation (50,000 x g, 4 °C, 1 hr). The protein was passed over 5ml of glutathione Sepharose 4B resin (GE Healthcare) at 4 °C. The resin was then washed with buffer A and the protein eluted with buffer A supplemented with 10 mM glutathione. The protein was then applied to a Superdex 200 26/60 gel filtration column (GE Healthcare) equilibrated in buffer […]
1.2 Isothermal Titration Calorimetry.
ATAD2 was exchanged into ITC buffer (50 mM HEPES pH7.4, 200 mM NaCl, 1 mM DTT).
ITC measurements were carried out at 25°C on a Microcal ITC 200 (Malvern Instruments Ltd, Malvern, UK). Compound 11 at 40mM, 2% DMSO was titrated into ATAD2 prepared in the cell at 150 μM, 2% DMSO. Titrations began with an initial 0.5 μL injection followed by 19x 2 μL injections of compound, with 120s spacing between each injection, and stirred at 1000 rpm throughout the experiment. Data were then analysed using Origin 7.0 (OriginLab Corp., Burlington, NC, USA) and fit with the one-set-of-sites model.
1.3 ATAD2-Histone displacement HTRF assay.
Compounds (dissolved to 100 mM in DMSO) were dispensed into black 384 well assay plates […]
(§2) 12.5 μM using an Echo 550 (Labcyte). Each well was backfilled to a final volume of 200 nl (for the […]), resulting in final DMSO concentrations of 2 %. 5 μl of GST-ATAD2 was added to each well and incubated for 30mins resulting in a final concentration of 5 nM.
(§3) 5μl of biotinylated-histone H4 peptide (SGRG-K(Ac)-GG-K(Ac)-GLG-K(Ac)-GGA-K(Ac)- RHRKVGG-K(Biotin)) was then added to each well at a final concentration of 500nM. Both GST-ATAD2 and peptide were diluted in buffer B (50 mM Tris pH 7.5, […], 1 mM DTT, 100 μg/ml bovine serum albumin (BSA)). The plate was then incubated at room temperature for 30mins and then 5 μl LanthaScreen® Tb-anti-GST Antibody (Life Technologies) at final concentration of 5 nM was added to each well and incubated for an additional 30mins. 5 μl of streptavidin-XLL65 (Cisbio Assay) at a final concentration of […] was added to each assay well. Both dyes were diluted in buffer C (50 mM Tris pH 7.5, […], 100 μg/ml BSA). The plate was incubated at room temperature for a further 30mins and then read using a PheraStar FS (BMG Labtech). The data were analysed using Graphpad […]
(§4) 1.4 Surface Plasmon Resonance (SPR).
(§5) SPR-based ligand binding assays were performed using Biacore S200 (GE Healthcare) at 25 °C using single cycle affinity.
(§6) ATAD2N1064A was achieved using standard amine coupling on a CM5 chip surface. The surface was prepared through activation with EDC/NHS, followed by injection of 10 µg/ml of respective proteins until target level 8000 RU was reached. The surface was then quenched using 1 M Ethanolamine and washed with running buffer 10 mM HEPES, 150mM NaCl, 0.01% TWEEN20, 0.5 mM TCEP and 1% DMSO with a flow rate of […]. Compounds were injected in a dose-response manner (8 concentration points ranging from 0-200 µM) in series across the control, ATAD2, BRD4, and ATAD2-N1064A flow cells using solvent correction to account for bulk refractive index changes. The reference control channel was subtracted

Another data set deals with T2, ATAD2 bromodomain (Homo sapiens, UniProt Q6PL18).
T2 construct: 981-1108; GST (N); made in house; host or cells: Escherichia coli BL21 (DE3) pLysS, plasmid pGEX-6P-1
T2 sequence (Q6PL18 981-1108): T1 sequence (Q6PL18 981-1108)
As to the kind of experiment: Surface plasmon resonance (SPR) direct binding to ATAD2. The settings on record: for Kd: SPR format assay, Kd above the top concentration projected by extrapolation (extrapolated Rmax from control compound). As to the method: as §1, §2, §3, §4, §5
as §6, with “subtracted […]” for “subtracted”
(§7) from immobilised channels and dose-response data was fitted using a steady state constant Rmax 1:1 binding model, using an extrapolated Rmax determined from a binding control compound in those cases where the extrapolated Kd value was greater than the top concentration used in the experiment (200 µM). K d values are reported to the nearest 100th of micromolar. 1 […]
(§8) Crystallisation was performed at 20 °C using the hanging drop vapor diffusion method.
(§9) Crystals of ATAD2 were grown by mixing 2µl ATAD2 at 7mg/ml and 2µl precipitant containing 0.1 M BIS-TRIS pH 6.5 and 2.0 M ammonium sulfate. Crystals were harvested in a diffusion solution containing 10 mM compound, 5% DMSO, 25 mM HEPES pH 7.5, 75 mM NaCl, 50 mM BIS-TRIS pH 6.5 and 1.0 M Ammonium Sulfate for 48hrs. Prior to data collection the crystals were cryo protected with the addition of 25% (v/v) ethylene glycol to the diffusion solution. X-ray diffraction data were recorded at Diamond Light Source (Harwell, Oxfordshire, UK). Data processing was carried out using XDS, POINTLESS/AIMLESS2 and other programs of the CCP4i suite3 run through the CCP4i2 gui. Structures were solved by molecular replacement using PHASER4 and pdb 3DAI as a starting model. REFMAC5 was employed for refinement, and model building was performed using COOT6. PDBs were deposited within the protein database www.pdb.org using accession codes: 11 XXXX, 15a […]

In the next data set the target is BRD4 (Homo sapiens, UniProt O60885). As to the kind of experiment: Surface plasmon resonance (SPR) direct binding to BRD4. To be noted: for Kd: SPR format assay, Kd above the top concentration projected by extrapolation (extrapolated Rmax from control compound). As to the method: Surface plasmon resonance (SPR) was used to assess the direct binding of the fragments and provide Kd values for binding to both ATAD2 and BRD4. SPR can yield artefactual data where the concentration of a small-molecular analyte exceeds ∼250 μM, and accordingly, this was the highest concentration used in the assays. Where the Kd exceeded this limit, projected Kds were determined by extrapolation, using the observed response units for compound binding (RU) relative to the molecular weight of a known control compound.[23]
as §2, §3, §4, §5
as §6, with “subtracted […]” for “subtracted”
as §7, §8, §9

Consider `Cc1ccc(Cn2cc3c(cc2=O)C(C)(C)C(=O)N3C)cc1` [Compound 17l], for which the melting point is 180 to 182 °C. Moreover, in data set [1], the concentration for half-maximal inhibition (IC50) came out at 274 ± 75 µM and the “ATAD2 LE” value is 0.23. For the same molecule, on ATAD2 bromodomain, the Kd was over 200 µM. For the same molecule, the Kd at BRD4 was 58 µM.
For the molecule `CCC1(CC)C(=O)N(C)c2cn(Cc3ccc(C(F)(F)F)cc3)c(=O)cc21` [Compound 18b], in data set [1], the IC50 is 163 ± 37 µM and the “ATAD2 LE” value amounted to 0.20. In addition, the equilibrium dissociation constant (Kd) on ATAD2 bromodomain was over 200 µM. The Kd at BRD4 is over 2000 µM.
Turning to `Cn1cc2c(cc1=O)C(C)(C)C(=O)N2CCO` [Compound 14g], the IC50 in data set [1] is over 1000 µM. Further, the Kd at ATAD2 bromodomain and on BRD4 was over 2000 µM throughout.
`CN1C(=O)C(C)(C)c2cc(=O)n(Cc3ccc(C#N)cc3)cc21` [Compound 17g] came in with an IC50 in data set [1] of 562 ± 67 µM. Also, the “ATAD2 LE” value in data set [1] was determined as 0.20. The Kd on ATAD2 bromodomain is over 200 µM; on BRD4, 142 µM.
On the same counts, the results for `CN1C(=O)C(C)(C)c2cc(=O)n(Cc3ccc(C(F)(F)F)cc3)cc21` [Compound 17m] are 179 ± 43 µM, 0.21, over 200 µM and 124 µM.
On the same counts, the results for `CN1C(=O)C(C)(CC2CC2)c2cc(=O)n(Cc3ccc(Cl)cc3)cc21` (centres unmarked) [Compound 22f] are 304 ± 83 µM, 0.20, 113 µM and over 200 µM.
On the same counts, the results for `CN1C(=O)C(C)(C)c2cc(=O)n(Cc3ccc(Cl)c(Cl)c3)cc21` [Compound 17n] are 299 ± 28 µM, 0.21, 159 µM and 65 µM.
With `Cc1nc(CC2(C)C(=O)N(C)c3cn(Cc4ccc(Cl)cc4)c(=O)cc32)cs1` (centres unmarked) [Compound 22c], the IC50 in data set [1] was 352 µM. In addition, the “ATAD2 LE” value in data set [1] worked out at 0.17. Further, the Kd at ATAD2 bromodomain was 110 µM; on BRD4 it was over 200 µM.
On to `Cn1cc2c(cc1=O)C(C)(C)C(=O)N2` [Compound 7], for which, in data set [1], the “ATAD2 inhibition in HTRF, in words” value is reported as “some inhibition was observed at the highest concentration assayed”. Also, on ATAD2 bromodomain (SPR), the “ATAD2 binding by SPR, in words” value is given as “bound too weakly to ATAD2 to allow Kd values to be calculated”. In addition, the Kd at BRD4 is over 2000 µM.
As to `Cn1cc2c(cc1=O)C(C)(C)C(=O)N2CCN1CCCC1` [Compound 14d], the IC50 in data set [1] is over 1000 µM. In addition, the results for the Kd at ATAD2 bromodomain and on BRD4 were over 2000 µM and over 200 µM, respectively.
Turning to `CN1C(=O)C(C)(C)c2cc(=O)n(CCc3ccccc3)cc21` [Compound 17d], in data set [1], the IC50 is 741 ± 74 µM; the “ATAD2 inhibition in HTRF, in words” value is reported as “sub-millimolar ATAD2 IC50 values”; the “ATAD2 LE” value stood at 0.20. Further, at ATAD2 bromodomain, the Kd is over 200 µM. The Kd on BRD4 was 161 µM. In addition, the “selectivity between ATAD2 and BRD4, in words” value at BRD4 (SPR, BRD4 versus ATAD2) is reported as “bound more tightly to BRD4 than to ATAD2”.
In turn, `CN1C(=O)C(C)(Cc2ccccc2)c2cc(=O)n(Cc3ccc(Cl)cc3)cc21` (centres unmarked) [Compound 22a] gave an IC50 in data set [1] of over 1000 µM. The Kd on ATAD2 bromodomain was over 200 µM; at BRD4, over 2000 µM.
Taken in the same sequence, the figures for `Cn1cc2c(cc1=O)C(C)(C)C(=O)N2CCN1CCOCC1` [Compound 14e] were over 1000 µM, over 2000 µM and over 2000 µM.
As for `COC(=O)c1ccc(Cn2cc3c(cc2=O)C(C)(C)C(=O)N3C)cc1` [Compound 17e], in data set [1], the half-maximal inhibitory concentration (IC50) worked out at 651 ± 1 µM and the “ATAD2 LE” value turned out to be 0.18. The Kd at ATAD2 bromodomain is over 200 µM. Moreover, the dissociation constant Kd at BRD4 was 141 µM.
`CN1C(=O)C(C)(C)c2cc(=O)n(Cc3cccc(C#N)c3)cc21` [Compound 17p]: in data set [1], the concentration for half-maximal inhibition (IC50) stood at 668 ± 28 µM and the “ATAD2 LE” value came out at 0.19. Besides, the Kd at ATAD2 bromodomain is over 200 µM. Moreover, at BRD4, the Kd was 184 µM.
On the same counts, the results for `CN1C(=O)C(C)(C)c2cc(=O)n(Cc3ccc(Cl)cc3)cc21` [Compound 17j] are 190 ± 63 µM, 0.24, 200 µM and 40 µM.

Broadly, the IC50 is the concentration at which inhibition is half-maximal. Lower therefore signals inhibition by little substance. What is called Kd is a measure of binding affinity in units of concentration. In general, melting point refers to the temperature, or range, at which the solid turns liquid.
